Laboratory results reported in US20080176792A1, “VEGFR-1 TARGETING PEPTIDES” (priority 2000, published 2008).
Ends that are not written are not given here.

What was measured:
human bone marrow cells = assay: Binding of single phage clones to bone marrow cells by BRASIL; format: cell-based; settings: single phage clone; negative control fd-tet phage, positive control RGD-4C phage
From the text: Fresh human ribs removed during surgery for access to underlying tumors were sectioned to expose the bone marrow surface. No significant damage to the bone marrow was inflicted to the tissue and the morphology was well preserved during after the procedure. The bone samples were washed (gently) 5 times with ice cold DMEM/0.15% BSA (sterile filtered). The marrow was removed by gently scraping cells from the bone. Cells were washed twice by centrifugation and resuspension in DMEM/BSA to remove debris and fat. Cells were resuspended in DMEM/BSA (about 10^7 cells per ml) and incubated with a phage display library (10^9 TU) prepared as described above. After incubation for 3 hours on ice, the cells were centrifuged through an organic phase consisting of a 9:1 mixture of dibutylphthalate:cyclohexane. Centrifugation occurred for 10 min at 10,000×g. The bottom of the centrifuge tube was snap frozen at −80° C. and phage were recovered by bacterial infection as described above. The selection was repeated for 3 more rounds of BRASIL and 90 clones were sequenced.
A system has been designed to analyze the data resulting from peptide library screenings, adapted from the SAS package. The system is available upon request from the M. D. Anderson Cancer Center. […] The positive control was phage containing an RGD-4C insert, which is known to bind to bone marrow. […]

leptin = settings: cited from earlier work
[1] = tested on: urothelial tumor cell line T24; assay: Phage attachment to subconfluent cell monolayer; format: cell-based, human; settings: 1x10^8 T.U. per well
From the text: FIG. 7. Binding of selected phage clones to the human breast cancer cell line MDA-MBA435 (white bars) as well as the urothelial tumor cell lines T24 (light grey bars) and RT4 (dark grey bars). Insertless fd-tet phage were included as controls. Results are given as mean of triplicate wells relative to binding of fd-tet phage, that was set as 1. Input of phage was 1×10^8 T.U. per well. Bound phage were detected after intensive washing by infection with log phase K91 bacteria and plating of serial dilutions.
Binding of selected phage was examined with human adherent primary urothelial cells, the breast cancer cell line MDA-MB-435 and the transitional carcinoma cell lines RT4 and T24. All cells were grown to subconfluency in 48 well plates and free binding sites were blocked with 800 μl 30% FCS/DMEM (blocking medium) for 1 hour at 37° C. The blocking solution was then replaced by 200 μl 10% FCS/DMEM (washing medium) containing 1×10^8 cfu of each phage per well. After incubation for 2 hours at 4° C. to prevent unspecific endocytosis, unbound phage were removed by washing 7 times with 500 μl washing medium. For competition experiments increasing concentrations of the corresponding peptide or a control peptide (CARAC, SEQ ID NO:5) were added during the incubation. Bound phage were determined by infection with 500 μl log phase K91 culture and plating of serial dilutions. […]

porcine bladder mucosa = assay: Dot blot chamber assay after removal of the GAG-layer; format: cell-based; settings: 0.1M HCl for 2 min; relative to untreated mucosa set to 1
Description: FIG. 10. Influence of the GAG-layer on phage binding. In the dot blot chamber assay portions of a porcine bladder mucosa were treated with 0.1M HCl for 2 min prior to remove the GAG-layer. Binding to treated surface is given relative to untreated surface, that was set as 1. Bound phage were detected after intensive washing by infection with log phase K91 bacteria and plating of serial dilutions.
(§1) Removal of the glucosaminoglycan- (GAG-) layer on intact mucosa samples was performed as a dot blot chamber assay. Half of the wells were incubated with 200 μl 0.1M HCl per well for 2 min, intensely rinsed with blocking solution and both parts blocked as before. Results are given relative to fd-tet phage to untreated mucosa, that was set to 1.
(§2) Using the same assay the influence of the glucosaminoglycan (GAG) layer on binding of several phage to intact mucosa was examined. The GAG-layer was removed as described above. Half of the mucosa of human ureter and porcine bladder specimens were treated inside the dot blot chamber with […] for 2 min, extensively washed and the binding assay performed as before.

human ureter mucosa = assay: as above; format: cell-based; settings: human ureter sample
Description: as §1, §2

[2] = biological target: BSA (bovine serum albumin) (bovine, UniProt P02769 25-607); assay: phage binding to immobilized protein, recovery by bacterial infection
Sequence of BSA (bovine serum albumin) (P02769 25-607 limits assumed): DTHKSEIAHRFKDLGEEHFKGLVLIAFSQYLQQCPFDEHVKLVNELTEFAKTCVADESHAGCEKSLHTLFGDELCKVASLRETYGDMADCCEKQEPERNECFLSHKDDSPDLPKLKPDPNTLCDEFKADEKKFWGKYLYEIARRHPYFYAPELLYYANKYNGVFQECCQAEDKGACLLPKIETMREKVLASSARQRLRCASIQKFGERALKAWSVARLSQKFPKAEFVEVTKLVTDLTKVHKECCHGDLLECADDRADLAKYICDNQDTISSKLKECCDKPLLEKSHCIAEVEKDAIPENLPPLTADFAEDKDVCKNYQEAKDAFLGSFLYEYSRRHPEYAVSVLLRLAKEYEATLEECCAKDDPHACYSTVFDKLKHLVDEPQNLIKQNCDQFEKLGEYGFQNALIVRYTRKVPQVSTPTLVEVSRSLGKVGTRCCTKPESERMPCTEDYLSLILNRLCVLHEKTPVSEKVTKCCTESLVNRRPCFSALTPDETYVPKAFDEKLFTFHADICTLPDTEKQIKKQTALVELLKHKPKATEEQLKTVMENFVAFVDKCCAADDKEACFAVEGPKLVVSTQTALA

recombinant rat NRP-1/Fc = biological target: T1, recombinant rat NRP-1/Fc (rat; human, UniProt Q9QWJ9 22-854, limits assumed); assay: phage binding to immobilized receptor, recovery by bacterial infection
T1 construct: Bought receptor/Fc chimera; also called rat Neuropilin-1; neuropilin-1; not shown: Fc region of human IgG1
T1 sequence (looked up): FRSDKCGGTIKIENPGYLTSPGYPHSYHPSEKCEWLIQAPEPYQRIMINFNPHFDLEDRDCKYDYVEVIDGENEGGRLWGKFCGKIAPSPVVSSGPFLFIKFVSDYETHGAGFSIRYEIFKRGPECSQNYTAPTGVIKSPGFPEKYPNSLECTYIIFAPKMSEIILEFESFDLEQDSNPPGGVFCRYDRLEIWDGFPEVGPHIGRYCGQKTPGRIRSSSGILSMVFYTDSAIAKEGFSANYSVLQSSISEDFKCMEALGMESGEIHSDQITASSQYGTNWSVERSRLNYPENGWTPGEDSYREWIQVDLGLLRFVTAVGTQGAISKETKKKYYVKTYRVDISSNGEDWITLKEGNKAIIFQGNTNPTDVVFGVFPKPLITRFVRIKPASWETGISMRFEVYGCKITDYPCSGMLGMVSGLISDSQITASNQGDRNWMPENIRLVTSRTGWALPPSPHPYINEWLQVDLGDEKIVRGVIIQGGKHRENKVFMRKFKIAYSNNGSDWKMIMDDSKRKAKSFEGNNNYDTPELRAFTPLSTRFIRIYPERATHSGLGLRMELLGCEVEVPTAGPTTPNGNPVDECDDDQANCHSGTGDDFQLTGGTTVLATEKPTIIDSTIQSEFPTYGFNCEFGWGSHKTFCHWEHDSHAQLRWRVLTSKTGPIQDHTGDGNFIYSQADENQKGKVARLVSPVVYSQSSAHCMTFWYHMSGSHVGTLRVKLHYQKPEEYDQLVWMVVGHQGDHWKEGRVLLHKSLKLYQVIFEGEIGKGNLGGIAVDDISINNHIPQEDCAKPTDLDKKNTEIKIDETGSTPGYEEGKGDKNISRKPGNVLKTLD
Description: (§3) Human VEGFR-1, human VEGFR-2, rat NRP-1, and rat NRP-2 (1 μg in 50 μl of PBS) were immobilized on microtiter well plates overnight at 4° C. The wells were washed twice with PBS, blocked with PBS containing 3% BSA for 2 h at room temperature, and then incubated with 10⁹ TU of either […] […] (SEQ ID NO:11) phage, or fd-tet phage in 50 μl of PBS/1.5% BSA. After 1 hr at room temperature, wells were washed nine times with PBS and phage were recovered by bacterial infection. Serial dilutions were plated onto Luria-Bertani (LB) medium supplemented with tetracycline. VEGF₁₆₅, PDGF-BB, or synthetic peptides were used at the indicated concentrations and pre-incubated with the immobilized proteins to evaluate competitive inhibition of phage binding.

[3] = biological target: T2, recombinant human VEGFR-2/Fc (human, UniProt P35968 20-764); assay: as above
T2 construct: Bought receptor/Fc chimera; not shown: Fc region of human IgG1
T2 sequence (P35968 20-764 limits assumed): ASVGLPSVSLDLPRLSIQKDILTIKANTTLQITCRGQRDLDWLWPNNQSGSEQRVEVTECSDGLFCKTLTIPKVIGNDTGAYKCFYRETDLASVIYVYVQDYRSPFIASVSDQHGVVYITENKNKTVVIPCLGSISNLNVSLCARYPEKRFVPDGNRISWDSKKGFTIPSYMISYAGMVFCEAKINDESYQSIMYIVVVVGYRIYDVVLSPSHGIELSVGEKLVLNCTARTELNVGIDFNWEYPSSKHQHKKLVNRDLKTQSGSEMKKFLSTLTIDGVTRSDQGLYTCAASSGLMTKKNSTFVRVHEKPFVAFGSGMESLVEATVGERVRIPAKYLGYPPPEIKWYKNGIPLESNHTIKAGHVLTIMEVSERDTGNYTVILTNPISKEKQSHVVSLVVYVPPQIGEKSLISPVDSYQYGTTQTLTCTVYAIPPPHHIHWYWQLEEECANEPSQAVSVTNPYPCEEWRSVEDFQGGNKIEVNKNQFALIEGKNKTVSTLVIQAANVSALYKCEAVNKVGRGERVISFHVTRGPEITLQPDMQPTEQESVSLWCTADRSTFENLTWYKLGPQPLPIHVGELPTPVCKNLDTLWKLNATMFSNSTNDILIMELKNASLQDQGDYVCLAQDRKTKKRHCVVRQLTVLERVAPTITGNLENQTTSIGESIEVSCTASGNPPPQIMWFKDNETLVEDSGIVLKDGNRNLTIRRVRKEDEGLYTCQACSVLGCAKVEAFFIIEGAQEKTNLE
Description: as §3

recombinant rat NRP-2/Fc = biological target: T3, recombinant rat NRP-2/Fc (rat; human, UniProt O35276 23-858, limits assumed); assay: as above
T3 construct: Bought receptor/Fc chimera; also called neutropilin-2 (NRP-2) receptor; not shown: Fc region of human IgG1
T3 sequence (looked up): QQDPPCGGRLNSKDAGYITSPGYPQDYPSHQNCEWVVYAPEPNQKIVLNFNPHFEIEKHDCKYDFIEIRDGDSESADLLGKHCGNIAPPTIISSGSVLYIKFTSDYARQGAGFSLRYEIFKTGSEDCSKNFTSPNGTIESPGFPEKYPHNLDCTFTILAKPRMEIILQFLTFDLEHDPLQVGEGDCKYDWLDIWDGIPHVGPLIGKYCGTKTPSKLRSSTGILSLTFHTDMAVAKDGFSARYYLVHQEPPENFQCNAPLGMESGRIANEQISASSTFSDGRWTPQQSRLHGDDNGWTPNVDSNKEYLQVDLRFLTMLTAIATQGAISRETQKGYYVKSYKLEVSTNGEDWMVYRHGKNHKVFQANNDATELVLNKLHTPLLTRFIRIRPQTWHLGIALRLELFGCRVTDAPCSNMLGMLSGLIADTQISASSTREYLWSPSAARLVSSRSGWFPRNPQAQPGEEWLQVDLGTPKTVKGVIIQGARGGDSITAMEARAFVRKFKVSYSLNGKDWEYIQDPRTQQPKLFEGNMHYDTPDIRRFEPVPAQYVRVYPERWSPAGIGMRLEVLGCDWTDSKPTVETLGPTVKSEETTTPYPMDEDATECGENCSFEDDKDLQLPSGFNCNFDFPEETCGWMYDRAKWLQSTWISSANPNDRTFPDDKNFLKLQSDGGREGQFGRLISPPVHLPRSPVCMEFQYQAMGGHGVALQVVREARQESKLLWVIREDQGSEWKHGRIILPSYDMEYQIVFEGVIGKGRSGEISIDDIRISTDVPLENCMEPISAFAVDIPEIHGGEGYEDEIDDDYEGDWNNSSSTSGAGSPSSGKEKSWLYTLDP
Description: as §3

[4] = biological target: T4, recombinant human VEGFR-1 (human, UniProt P17948 27-758, limits assumed); assay: phage binding to immobilized receptor, against insertless fd-tet phage (not shown)
T4 construct: Bought; immobilized on microtiter wells (1 ug in 50 ul PBS); also called Flt1
T4 sequence (P17948 27-758 limits assumed): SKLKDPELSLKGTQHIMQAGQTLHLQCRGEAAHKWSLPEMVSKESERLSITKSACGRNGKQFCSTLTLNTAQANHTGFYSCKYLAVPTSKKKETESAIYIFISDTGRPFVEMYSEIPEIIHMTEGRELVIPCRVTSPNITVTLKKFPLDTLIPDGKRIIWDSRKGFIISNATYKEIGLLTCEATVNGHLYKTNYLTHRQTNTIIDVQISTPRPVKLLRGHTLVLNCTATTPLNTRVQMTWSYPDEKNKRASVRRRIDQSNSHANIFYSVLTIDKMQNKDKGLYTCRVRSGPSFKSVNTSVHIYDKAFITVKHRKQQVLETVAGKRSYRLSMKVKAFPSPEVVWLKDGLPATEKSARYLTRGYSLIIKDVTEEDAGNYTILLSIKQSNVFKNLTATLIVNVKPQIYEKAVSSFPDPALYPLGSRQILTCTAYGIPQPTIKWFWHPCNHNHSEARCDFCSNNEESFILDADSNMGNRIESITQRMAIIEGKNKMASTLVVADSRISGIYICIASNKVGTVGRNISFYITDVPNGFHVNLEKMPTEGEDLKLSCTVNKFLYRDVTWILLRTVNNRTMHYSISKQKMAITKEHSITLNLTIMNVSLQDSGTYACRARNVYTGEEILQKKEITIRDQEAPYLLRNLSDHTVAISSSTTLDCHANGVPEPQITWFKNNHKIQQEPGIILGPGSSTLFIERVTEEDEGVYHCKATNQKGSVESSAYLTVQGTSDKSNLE
Description: as §3

## CLGWRAAAC
Human bone marrow cells
  binding to human bone marrow cells: over twice as high as the positive control

## DLLHLLAFSKSCSLLP
leptin
  leptin activity in vivo: block leptin activity

## CGQEISGLC
[1]
  binding to T24 tumor cells: bound

## CWGGLSGLC
Porcine bladder mucosa
  increase of phage binding after GAG-removal: 4.2 fold
Human ureter mucosa
  increase of phage binding after GAG-removal: 3.4 fold

B1: phage clone-19 displaying the peptide CPQPRPLC (SEQ ID NO:6) (peptide)
peptide: CPQPRPLC
modifications: not fully specified (bridges); cysteine pairing not given here; also: displayed on pIII of filamentous phage
notes: Tested as whole filamentous phage (10^9 TU per well), not as free peptide; The peptide is expressed in the pIII protein; also called clone 19 phage; not shown: The phage pIII coat protein that carries the insert, and the residues flanking the insert
[2]
  binding result: no binding (tested: 10^9 TU of phage in 50 ul)
Recombinant rat NRP-1/Fc
  binding result: binds
[3]
  binding result: no binding (tested: 10^9 TU of phage in 50 ul)
Recombinant rat NRP-2/Fc
  binding result: no binding (tested: 10^9 TU of phage in 50 ul)
[4]
  fold enrichment of binding over fd-tet phage: > 1000 fold
